Laboratory results published in US9274101B2 (BIOLOG, Inc., priority 2001, dated 2016).

Assays:
Format in all cases: cell-based, human
HL-60 cells = assay: Effect of 10 mM citric acid on HL-60 energy utilization; settings: negative control without energy sources and without citric acid
HepG2 cells = HepG2 cells on flat bottom plastic wells, energy sources at a range of concentrations
Summary of the method: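 HepG2 cells plated overnight at 4×10^4 cells/cm^2 in glucose-, glutamine- and pyruvate-free DME with 10% HI FBS, then exposed to each energy source at 0.033 to 20 mM final for 48 to 72 h at 37° C, 5% CO2. MTS/PMS colour read at 490 nm (reference 650 nm) after 4-24 h; cell-free plate OD subtracted, data normalised to % negative control (water, no energy source).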

[1] = tested on: Undifferentiated HL-60 cells; assay: Energy use by undifferentiated HL-60 cells
[2] = tested on: DMSO-differentiated HL-60 cells; assay: Energy use by DMSO-differentiated HL-60 cells
Summary of the method: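 HL-60 cells, […] differentiated with 1.25% DMSO for 3 days, were plated at 5×10^4/well in DME-R with test energy sources at 0.033–20 mM final for 24 h at 37 °C. Viability was measured by MTS/PMS at 490 nm (ref 650 nm) 24 h after reagent addition. Values were background-subtracted using cell-free plates and expressed as % of the no-energy-source control.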

O=C(O)[C@@H]1C[C@@H](O)CN1 [hydroxy L-proline]
Effect of 10 mM Citric Acid on HL-60 Energy Utilization (HL-60 cells; energy source 0.03 mM with 10 mM citric acid): 7.6 % of negative control | Effect of 10 mM Citric Acid on HL-60 Energy Utilization (HL-60 cells; energy source 0.10 mM with 10 mM citric acid): 17.7 % of negative control | Effect of 10 mM Citric Acid on HL-60 Energy Utilization (HL-60 cells; energy source 0.33 mM with 10 mM citric acid): 25.0 % of negative control | Effect of 10 mM Citric Acid on HL-60 Energy Utilization (HL-60 cells; energy source 1.00 mM with 10 mM citric acid): 37.5 % of negative control | Effect of 10 mM Citric Acid on HL-60 Energy Utilization (HL-60 cells; energy source 3.3 mM with 10 mM citric acid): 49.0 % of negative control | Effect of 10 mM Citric Acid on HL-60 Energy Utilization (HL-60 cells; energy source 10 mM with 10 mM citric acid): 85.0 % of negative control | Effect of 10 mM Citric Acid on HL-60 Energy Utilization (HL-60 cells; energy source 15 mM with 10 mM citric acid): 87.4 % of negative control | Effect of 10 mM Citric Acid on HL-60 Energy Utilization (HL-60 cells; energy source 20 mM with 10 mM citric acid): 68.8 % of negative control | HepG2 Cells Responses After 72 hours in Culture and a 4 hour Color Development Period (HepG2 cells; Conc. 0.03 mM): 97.0 % of negative control | HepG2 Cells Responses After 72 hours in Culture and a 4 hour Color Development Period (HepG2 cells; Conc. 0.10 mM): 139.9 % of negative control | HepG2 Cells Responses After 72 hours in Culture and a 4 hour Color Development Period (HepG2 cells; Conc. 0.33 mM): 162.2 % of negative control | HepG2 Cells Responses After 72 hours in Culture and a 4 hour Color Development Period (HepG2 cells; Conc. 1.00 mM): 140.5 % of negative control | HepG2 Cells Responses After 72 hours in Culture and a 4 hour Color Development Period (HepG2 cells; Conc. 3.3 mM): 126.8 % of negative control | HepG2 Cells Responses After 72 hours in Culture and a 4 hour Color Development Period (HepG2 cells; Conc. 10 mM): 123.1 % of negative control | HepG2 Cells Responses After 72 hours in Culture and a 4 hour Color Development Period (HepG2 cells; Conc. 15 mM): 101.3 % of negative control | HepG2 Cells Responses After 72 hours in Culture and a 4 hour Color Development Period (HepG2 cells; Conc. 20 mM): 62.8 % of negative control | Energy Use by Undifferentiated HL-60 Cells ([1]; Conc. 0.03 mM): 109.9 % of negative control | Energy Use by Undifferentiated HL-60 Cells ([1]; Conc. 0.10 mM): 112.9 % of negative control | Energy Use by Undifferentiated HL-60 Cells ([1]; Conc. 0.33 mM): 99.6 % of negative control | Energy Use by Undifferentiated HL-60 Cells ([1]; Conc. 1.00 mM): 104.7 % of negative control | Energy Use by Undifferentiated HL-60 Cells ([1]; Conc. 3.3 mM): 114.7 % of negative control | Energy Use by Undifferentiated HL-60 Cells ([1]; Conc. 10 mM): 117.8 % of negative control | Energy Use by Undifferentiated HL-60 Cells ([1]; Conc. 15 mM): 124.2 % of negative control | Energy Use by Undifferentiated HL-60 Cells ([1]; Conc. 20 mM): 101.8 % of negative control | Energy Use by DMSO-Differentiated HL-60 Cells ([2]; Conc. 0.03 mM): 102.8 % of negative control | Energy Use by DMSO-Differentiated HL-60 Cells ([2]; Conc. 0.10 mM): 110.5 % of negative control | Energy Use by DMSO-Differentiated HL-60 Cells ([2]; Conc. 0.33 mM): 120.5 % of negative control | Energy Use by DMSO-Differentiated HL-60 Cells ([2]; Conc. 1.00 mM): 121.9 % of negative control | Energy Use by DMSO-Differentiated HL-60 Cells ([2]; Conc. 3.3 mM): 129.0 % of negative control | Energy Use by DMSO-Differentiated HL-60 Cells ([2]; Conc. 10 mM): 126.9 % of negative control | Energy Use by DMSO-Differentiated HL-60 Cells ([2]; Conc. 15 mM): 109.0 % of negative control | Energy Use by DMSO-Differentiated HL-60 Cells ([2]; Conc. 20 mM): 92.0 % of negative control
